Series [1] has as its system ulcerative colitis. Nature of the series: Human patient R-LS with ulcerative colitis. How it is done: Because treatment with AZA and 6-MP was not an option, they were treated instead with 6-TG using the conventional therapeutic protocol, namely bolus administration of 40 mg per day (R-LS weighs approximately 60 kg) and 5-aminosalicylic acid.
Again, they were treated with 6-TG using the conventional therapeutic protocol, namely bolus administration of 40 mg per day and balsalazide. […] Maintenance therapy to prevent relapse was again prescribed using a lower dose of balsalazide.
Given their clinical history, the inventors were reluctant to prescribe another bolus dose of 6-TG due to the known hepatotoxic side-effects that could occur.
Accordingly, R-LS was given 60 mg per day 6-TG in a divided dosage (3 separate doses of equal amounts). The doses were given at intervals throughout the day.

The test system of series [2] is inflammatory bowel disease. The settings on record: after one year; Ansari et al. 2008; cited from earlier work.
The subject of series [3] is acute childhood leukemia. The settings on record: cited from earlier work; for prevalence of VOD in patients: acute childhood leukemia cases, Stork et al. 2010.
Series [4] deals with Winnie (C57Bl/6 Muc2 Winnie/Winnie) mice. As to the kind of experiment: Immunosuppression (venous blood leukocytes) and myelotoxicity in Winnie mice. The settings on record: for immunosuppression (reductions in venous blood leukocytes): 11 days. The class given is in vivo. How it is done:
(§1) Male or female C57Bl/6 Winnie mice were gavaged twice daily for 11-days in an experiment with three groups (6 animals per group):
(§2) Group 1: 1.25 mg/kg 6TG evening and morning (total 2.5 mg/kg/d, N=6)
(§3) Group 3: 2.5 mg/kg/d 6TG in the morning and vehicle gavage in the afternoon ([…]).
(§4) Male or female C57Bl/6 Winnie mice were gavage once daily for 28-days in an experiment with two groups (6 animals per group):
(§5) Group 1: 0.5 mg/kg 6TG once daily gavage

The test system is the same in series [5]. Nature of the series: SOS in Winnie mice. The class given is in vivo. How it is done: (§6) The total possible VOD score was 240.
as §1, §2, §3, §4, §5

The subject of series [6] is C57BL/6 mice. Nature of the series: Veno-occlusive disease (VOD/SOS) blinded histological score in C57BL/6 mice. The settings on record: 10 days.
Source text: Veno-occlusive disease (or “VOD”) in each mouse was scored in a blinded fashion based on predetermined scoring criteria for sinusoidal endothelial damage (maximum 60), hepatic central vein damage (maximum 60) and inflammatory cell infiltrates using haematoxylin-eosin sections counterstained with vWF for endothelial cells and F4/80 for macrophages (maximum 120). The total possible VOD score was 240.
VOD was scored using the method described in Example 1.
Two groups of C57BL/6 mice were administered a large bolus dose of 6-TG (2.5 mg/kg body weight/day) either (1) orally (by gavage) or (2) intraperitoneally for a period of 10 days.
VOD in each mouse was then scored using the method described in Example 1.
Series [7] relates to HPRT−/− C57BL/6 mice. Nature of the series: VOD score in HPRT-/- mouse model. The settings on record: all dosage levels including 1 and 2.5 mg/kg body weight, gavage each day for 14 days. The class given is in vivo.
Source text: as §6

Series [8] deals with Winnie (C57Bl/6 Muc2 Winnie/Winnie) mice. As to the kind of experiment: Histological colitis scores in Winnie mouse model of spontaneous colitis. The class given is in vivo. How it is done:
This experiment usesa mouse model of spontaneous colitis called Winnie(C57Bl/6 Muc2^Winnie/Winnie) due to a single SNP mutation in Muc2 in C57Bl/6 mice. The model resembles ulcerative colitis. The mutation confers an intestinal epithelial cell defect, which causes a Th17 dominant inflammatory response (Heazlewood et al. 2008 and Eri et al. 2011).
as §1, §2
Group 2: vehicle control twice daily (N=6), or
as §3
This experiment uses Winnie(C57Bl/6 Muc2^Winnie/Winnie).
as §4, §5
Group 2: vehicle control (N=6),

Setting [9] is: 0.5 mg/kg once daily gavage, 28 days.

Consider `Cn1cnc([N+](=O)[O-])c1Sc1ncnc2nc[nH]c12` [AZA, 6-(3-methyl-5-nitroimidazol-4-yl)sulfanyl-7H-purine], for which the adverse reactions result in series [1] (human, in vivo) is “life-threatening adverse reactions”. Besides, the “patients who stop therapy due to side-effects or non-responsiveness” value in series [2] was “approximately 40%”.

As for `Sc1ncnc2nc[nH]c12` [Formulation 6-MP, 3,7-dihydropurine-6-thione], the adverse reactions result in series [1] (human, in vivo) is recorded as “life-threatening adverse reactions”. The “patients who stop therapy due to side-effects or non-responsiveness” value in series [2] is “approximately 40%”. Besides, the “prevalence of VOD in patients” value in series [3] is “not observed”.

For the compound `Nc1nc2nc[nH]c2c(=S)[nH]1` [Formulation 6-TG, 2-amino-6,7-dihydro-3H-purine-6-thione], the “response to the treatment” value was “once again effective” in series [1] (60 mg per day in 3 separate equal doses, six months (relapse December 2010)); “extremely positive response” in series [1] (bolus 40 mg per day with 5-aminosalicylic acid, after 4 months (2003)); “positive response” in series [1] (bolus 40 mg per day with balsalazide, ~5-6 months (relapse 2006)). Besides, the Immunosuppression entry in series [4] (setting [9]) was “mild”. The myelotoxicity entry in series [4] (setting [9]) was “did not have myelotoxicity”. In addition, the “immunosuppression (reductions in venous blood leukocytes)” value in series [4] (single full dosing 2.5 mg/kg/d) and in series [4] (split dosing 1.25 mg/kg twice daily) was “moderate immunosuppression” throughout. Also, the SOS entry is given as “did not occur” in series [5] (setting [9]); “causes SOS” in series [5] (2.5 mg/kg/d once daily gavage × 11 days); “SOS is largely avoided” in series [5] (split 1.25 mg/kg b.d dose, 11 days). The VOD entry is listed as “exhibited VOD” in series [6] (2.5 mg/kg body weight/day bolus by oral gavage) and “VOD was not observed” in series [6] (2.5 mg/kg body weight/day bolus intraperitoneally). Also, the “clinical effectiveness in treating the disease compared with 6-MP” value in series [3] (Stork et al. 2010 (and others)) is “equivalent or even more clinically effective”. Further, the “prevalence of VOD in patients” value in series [3] is given as “high prevalence of VOD”. In series [7], the VOD score result is “VOD was shown to be abrogated”. Further, the Histological colitis scores result in series [8] (0.5 mg/kg/d once daily gavage, 28 days) is reported as “significantly improved spontaneous colitis”; in series [8] (1.25 mg/kg twice daily gavage, 11 days) it was “significantly improved spontaneous colitis”; in series [8] (2.5 mg/kg/d gavaged once daily, 11 days), “significantly improved spontaneous colitis”.

In the case of `O=C(O)c1cc(/N=N/c2ccc(S(=O)(=O)Nc3ccccn3)cc2)ccc1O` [sulfasalazine], the adverse reactions entry in series [1] (patient history before 2003) is given as “life-threatening adverse reactions”.

These data come from patent US20130005749A1, “NOVEL FORMULATION AND TREATMENT METHODS” (The University of Queensland, priority 2011, published 2013).
